Each block holds one compound with its values, some of them ahead of it.
Experiments:
[1] = test system: KBM-5 (human chronic myelogenous leukemia); experiment: MTT cancer cell growth inhibition; format: cell-based; settings: KBM5, 72 h, KBM-5 cells, 72 hours incubation
Description: (§1) MTT assay principle is yellow MTT can penetrate membrane into the cell, succinic dehydrogenase of the mitochondria in living cells can make exogenous MTT reduction of insoluble in water of blue-violet acicular formazan for crystallization and deposition in the cell, crystallization can be dissolved dimethyl sulfoxide (DMSO) solution, detected its absorbance at 490 nm/570 nm wavelength by enzyme-linked immunosorbent assay, which can reflect the number of cells.
(§2) Using DMEM+10% FBS culture medium or using 1640+10% FBS culture, respectively.
(§3) Experimental group: 190 μl cell suspension+10 μl different concentrations of drugs (the final concentration is 10^−5˜10^−10 M)
(§4) a) Cells were seeded in 96-well plates with the inoculation of 1500/well, 190 μl/hole, 37° C., 5% of CO2 incubator overnight;
(§5) b) The next day each well was added 10 μl of different drugs. The final concentration of drug was 10^−5˜10^−10 M, three parallel holes; 37° C., 5% CO2 culture incubator for 72 hours incubation;
(§6) c) Per well was added 20 μl 5 mg/ml of MTT, 37° C., 5% CO2 culture incubator for 4 hours incubation;
(§7) d) The supernatant was discarded. Each well was added 100 μl of DMSO and oscillation;
(§8) e) 570 nm readings. Calculate cell viability. GI50 calculation based on the results.

[2] = test system: N-87 (human gastric cancer cells); experiment: MTT cancer cell growth inhibition; format: cell-based; settings: 72 h, N-87 cells, 72 hours incubation
Description: as §1, §2, §3, §4, §5, §6, §7, §8

[3] = test system: Huh-7 (human hepatoma cells); experiment: MTT cancer cell growth inhibition; format: cell-based; settings: Huh-7, 72 h, Huh-7 cells, 72 hours incubation
Description: as §1, §2, §3, §4, §5, §6, §7, §8

[4] = test system: MDA-MB-231 (breast cancer cells); experiment: MTT cancer cell growth inhibition; format: cell-based; settings: Homo sapiens, MDA-MB-231, 72 h, MDA-MB-231 cells, 72 hours incubation
Description: as §1, §2, §3, §4, §5, §6, §7, §8

[5] = test system: SGC-7901 (human gastric cancer cells); experiment: MTT cancer cell growth inhibition; format: cell-based; settings: SGC-7901, 72 h, SGC-7901 cells, 72 hours incubation, read-out: GI50 SGC-79
Description: as §1, §2, §3, §4, §5, §6, §7, §8

[6] = test system: Bel-7402 (human hepatoma cells); experiment: MTT cancer cell growth inhibition; format: cell-based; settings: Bel-7402, 72 h, Bel-7402 cells, 72 hours incubation, read-out: GI50 Bel-7
Description: as §1, §2, §3, §4, §5, §6, §7, §8

[7] = test system: K562 (human leukemia cells); experiment: MTT cancer cell growth inhibition; format: cell-based; settings: K562, 72 h, 72 hours incubation
Description: as §1, §2, §3, §4, §5, §6, §7, §8

[8] = test system: HCC827 (human non-small cell lung cancer cells); experiment: MTT cancer cell growth inhibition; format: cell-based; settings: HCC827, 72 h, 72 hours incubation, read-out: GI50 HCC8
Description: as §1, §2, §3, §4, §5, §6, §7, §8

[9] = test system: KBM5-T315I (human chronic myelogenous leukemia); experiment: MTT cancer cell growth inhibition; format: cell-based; settings: 72 h, KBM5-T315I cells, 72 hours incubation, read-out: GI50 KBM5-T
Description: as §1, §2, §3, §4, §5, §6, §7, §8

HDAC3 = HDAC3 (Homo sapiens, UniProt O15379); experiment: HDAC biochemical activity measurement (fluorescent substrate deacetylation); settings: IC50 (μM) HDAC3, HDAC3 enzyme, 37°, 30 minutes
Description: (§9) Measurement principle: The chemical activity of the compound is determined according to the degree of deacetylation inhibition of the HDAC enzyme. This experiment measured the degree of deacetylation related to tumor proliferation and metastasis of HDAC1, HDAC2, HDAC3, HDAC8, HDAC11 five subtypes HDAC enzymes. After the substrate containing an acetylated lysine side chain and HDAC enzyme are labeled with a fluorescent label, the fluorescent substrate is de acetyl. The fluorescent labeled substrate is cleaved by the enzyme, and the fluorescent substance is released, which generates 460 nm emission light under the excitation of 360 nm light.
(§10) Specific steps: HDAC substrate was diluted with reaction buffer to 200M (reaction concentration of 20M), the HDAC enzyme was diluted to the appropriate concentration, then added different concentrations of the test compounds and acted at 37 ? 30 minutes, and then added the same volume of 2-times concentration substrate developing solution (developer), incubated at room temperature for 15 minutes. Finally, the last reading measured with a microplate plate reader, excitation light was 360 nm, the emitted light was 460 nm, data processing software was Prime 4, and the results are shown in Table 1.

HDAC8 = target: T1, HDAC8 (Homo sapiens, UniProt Q9BY41); experiment: as above; settings: HDAC8 enzyme, 37°, 30 minutes
T1 sequence (Q9BY41 1-377): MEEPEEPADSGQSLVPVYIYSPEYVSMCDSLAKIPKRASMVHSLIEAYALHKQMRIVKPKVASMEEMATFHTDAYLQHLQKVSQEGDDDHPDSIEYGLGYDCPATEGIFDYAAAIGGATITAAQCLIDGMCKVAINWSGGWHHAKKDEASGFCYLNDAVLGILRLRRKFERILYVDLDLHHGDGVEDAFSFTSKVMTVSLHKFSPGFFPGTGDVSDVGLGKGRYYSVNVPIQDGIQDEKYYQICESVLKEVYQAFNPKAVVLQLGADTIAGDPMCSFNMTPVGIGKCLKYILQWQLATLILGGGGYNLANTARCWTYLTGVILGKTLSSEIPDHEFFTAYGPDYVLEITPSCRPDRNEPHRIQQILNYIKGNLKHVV
Description: as §9, §10

[10] = test system: MCF-7 (human breast cancer cells); experiment: MTT cancer cell growth inhibition; format: cell-based; settings: Homo sapiens, MCF7, 72 h, 72 hours incubation, MCF-7 cells
Description: as §1, §2, §3, §4, §5, §6, §7, §8

[11] = test system: U937 (human leukemia cells); experiment: MTT cancer cell growth inhibition; format: cell-based; settings: Homo sapiens, U-937, 72 h, 72 hours incubation
Description: as §1, §2, §3, §4, §5, §6, §7, §8

[12] = test system: Hela (human cervical cancer cells); experiment: MTT cancer cell growth inhibition; format: cell-based; settings: Homo sapiens, HeLa, 72 h, 72 hours incubation, Hela cells, read-out: GI50 Hela
Description: as §1, §2, §3, §4, §5, §6, §7, §8

[13] = test system: MOLT-4 (human acute lymphoblastic leukemia cells); experiment: MTT cancer cell growth inhibition; format: cell-based; settings: Homo sapiens, MOLT-4, 72 h, 72 hours incubation, MOLT-4 cells, read-out: GI50 Molt-
Description: as §1, §2, §3, §4, §5, §6, §7, §8

[14] = test system: BGC-823 (human gastric cancer cells); experiment: MTT cancer cell growth inhibition; format: cell-based; settings: Homo sapiens, BGC-823, 72 h, 72 hours incubation, BGC-823 cells, read-out: GI50 BGC8
Description: as §1, §2, §3, §4, §5, §6, §7, §8

[15] = test system: PANC-1 (Pac-1, human pancreatic cancer cells); experiment: MTT cancer cell growth inhibition; format: cell-based; settings: Homo sapiens, PANC-1, 72 h, 72 hours incubation, PANC-1 cells, read-out: GI50 PAN
Description: as §1, §2, §3, §4, §5, §6, §7, §8

[16] = test system: A549 (human lung cancer cells); experiment: MTT cancer cell growth inhibition; format: cell-based; settings: Homo sapiens, A549, 72 h, 72 hours incubation, A549 cells, read-out: GI50 A549
Description: as §1, §2, §3, §4, §5, §6, §7, §8

[17] = test system: DU145 (human prostate cancer cells); experiment: MTT cancer cell growth inhibition; format: cell-based; settings: Homo sapiens, DU-145, 72 h, 72 hours incubation, DU145 cells, read-out: GI50 Du14
Description: as §1, §2, §3, §4, §5, §6, §7, §8

[18] = test system: HT1080 (human fibrosarcoma cells); experiment: MTT cancer cell growth inhibition; format: cell-based; settings: Homo sapiens, HT-1080, 72 h, 72 hours incubation, HT1080 cells, read-out: GI50 HT10
Description: as §1, §2, §3, §4, §5, §6, §7, §8

[19] = test system: lncap (prostate cancer cells); experiment: MTT cancer cell growth inhibition; format: cell-based; settings: Homo sapiens, LNCaP, 72 h, 72 hours incubation, lncap cells, read-out: GI50 lncap
Description: as §1, §2, §3, §4, §5, §6, §7, §8

HDAC2 = HDAC2 (Homo sapiens, UniProt Q92769); experiment: HDAC biochemical activity measurement (fluorescent substrate deacetylation); settings: HDAC2 enzyme, 37°, 30 minutes
Description: as §9, §10

HDAC1 = HDAC1 (Homo sapiens, UniProt Q13547); experiment: as above; settings: HDAC1 enzyme, 37°, 30 minutes
Description: as §9, §10

HDAC11 = target: T2, HDAC11 (Homo sapiens, UniProt Q96DB2); experiment: as above; settings: IC50 (μM) HDAC11, HDAC11 enzyme, 37°, 30 minutes
T2 sequence (Q96DB2 1-347): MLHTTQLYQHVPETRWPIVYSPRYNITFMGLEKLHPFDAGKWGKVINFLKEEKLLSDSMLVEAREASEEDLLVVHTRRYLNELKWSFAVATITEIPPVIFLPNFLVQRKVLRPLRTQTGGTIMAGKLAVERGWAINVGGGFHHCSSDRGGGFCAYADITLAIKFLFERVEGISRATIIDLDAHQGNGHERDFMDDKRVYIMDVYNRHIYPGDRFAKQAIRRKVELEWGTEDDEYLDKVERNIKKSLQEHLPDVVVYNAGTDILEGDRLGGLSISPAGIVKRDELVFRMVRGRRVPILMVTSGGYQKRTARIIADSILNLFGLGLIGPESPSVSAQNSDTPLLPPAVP
Description: as §9, §10

Chain of HDAC2 (Q92769 whole entry, species assumed): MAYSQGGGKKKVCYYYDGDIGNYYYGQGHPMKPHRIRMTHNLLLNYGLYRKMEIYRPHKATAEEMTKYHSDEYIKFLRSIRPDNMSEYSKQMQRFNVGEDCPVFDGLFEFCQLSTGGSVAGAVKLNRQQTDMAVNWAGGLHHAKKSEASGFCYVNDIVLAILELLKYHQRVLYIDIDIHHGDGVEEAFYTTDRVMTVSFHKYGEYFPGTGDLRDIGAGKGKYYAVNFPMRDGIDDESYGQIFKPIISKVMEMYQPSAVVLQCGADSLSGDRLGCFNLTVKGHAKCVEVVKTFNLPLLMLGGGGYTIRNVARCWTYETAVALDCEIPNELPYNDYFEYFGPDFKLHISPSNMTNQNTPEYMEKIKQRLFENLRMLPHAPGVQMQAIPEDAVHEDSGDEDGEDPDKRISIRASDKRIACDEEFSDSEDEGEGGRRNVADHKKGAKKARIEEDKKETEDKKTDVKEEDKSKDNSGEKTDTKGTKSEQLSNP
Chain of HDAC3 (O15379 whole entry, species assumed): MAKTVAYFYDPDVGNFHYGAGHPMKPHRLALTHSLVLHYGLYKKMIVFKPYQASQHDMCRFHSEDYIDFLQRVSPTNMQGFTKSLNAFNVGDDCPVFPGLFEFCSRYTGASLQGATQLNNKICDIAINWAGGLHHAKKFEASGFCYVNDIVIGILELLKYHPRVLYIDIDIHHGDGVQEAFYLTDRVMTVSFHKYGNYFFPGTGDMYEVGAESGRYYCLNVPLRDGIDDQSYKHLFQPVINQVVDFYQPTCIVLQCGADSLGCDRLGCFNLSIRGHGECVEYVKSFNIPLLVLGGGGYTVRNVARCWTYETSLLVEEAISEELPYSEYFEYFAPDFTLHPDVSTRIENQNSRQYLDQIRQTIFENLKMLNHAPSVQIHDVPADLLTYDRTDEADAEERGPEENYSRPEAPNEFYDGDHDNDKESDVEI
Chain of HDAC3 (Q9Y618 395-489 partner limits assumed, species assumed): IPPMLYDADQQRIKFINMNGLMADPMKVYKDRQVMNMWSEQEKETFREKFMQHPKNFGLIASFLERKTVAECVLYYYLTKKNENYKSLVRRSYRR
Chain of HDAC1 (Q13547 whole entry, species assumed): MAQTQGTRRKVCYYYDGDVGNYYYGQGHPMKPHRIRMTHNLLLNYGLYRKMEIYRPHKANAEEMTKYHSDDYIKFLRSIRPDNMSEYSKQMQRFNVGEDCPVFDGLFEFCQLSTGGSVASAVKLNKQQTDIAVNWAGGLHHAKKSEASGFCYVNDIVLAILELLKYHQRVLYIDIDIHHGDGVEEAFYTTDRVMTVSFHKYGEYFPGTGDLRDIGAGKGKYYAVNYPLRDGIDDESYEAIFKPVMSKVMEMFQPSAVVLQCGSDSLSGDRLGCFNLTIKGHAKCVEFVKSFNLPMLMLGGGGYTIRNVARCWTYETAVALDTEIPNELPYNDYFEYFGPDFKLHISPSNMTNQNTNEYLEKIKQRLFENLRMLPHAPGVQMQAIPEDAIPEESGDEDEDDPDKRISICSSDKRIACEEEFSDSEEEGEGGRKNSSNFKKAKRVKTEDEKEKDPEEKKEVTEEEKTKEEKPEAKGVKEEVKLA

- GI50 [1]: 87 nM
- GI50 [2]: 73 nM
- GI50 [3]: 26 nM
- GI50 [4]: 26 nM
- GI50 [5]: 67 nM
- GI50 [6]: 72 nM
- GI50 [7]: 17 nM
- GI50 [8]: 72 nM
- GI50 [9]: 55 nM
SMILES: C/C=C1\NC(=O)c2cc(F)cc(n2)CNC(=O)C[C@@H](/C=C/CCSC(C)=O)OC(=O)[C@H](C(C)C)NC1=O [Compound 49]

- IC50 (HDAC3): 0.051 µM
- IC50 (HDAC8): 0.027 µM
- GI50 [10]: 23 nM
- GI50 [11]: 24 nM
- GI50 [12]: 76 nM
- GI50 [13]: 25 nM
- GI50 [14]: 37 nM
- GI50 [15]: 26 nM
- GI50 [16]: 25 nM
- GI50 [17]: 73 nM
- GI50 [18]: 95 nM
- GI50 [19]: 51 nM
- IC50 (HDAC2): 0.019 µM
- IC50 (HDAC1): 0.082 µM
- IC50 (HDAC11): 0.091 µM
SMILES: C/C=C1\NC(=O)c2cc(SC)cc(n2)CNC(=O)C[C@@H](/C=C/CCSC(=O)CCCC)OC(=O)[C@H](C(C)C)NC1=O [Compound 157]

- GI50 [1]: 79 nM
- GI50 [2]: 69 nM
- GI50 [3]: 25 nM
- GI50 [4]: 25 nM
- GI50 [5]: 39 nM
- GI50 [7]: 42 nM
- GI50 [9]: 63 nM
SMILES: C/C=C1\NC(=O)c2ccc(F)c(n2)CNC(=O)C[C@@H](/C=C/CCSC(C)=O)OC(=O)[C@H](C(C)C)NC1=O (single isomer, unassigned) [Example 50]

Source: patent US20160280736A1, “CYCLIC PEPTIDE COMPOUND, AND PREPARATION METHOD, PHARMACEUTICAL COMPOSITION AND USE THEREOF” (HANGZHOU GUANYU BIO-MEDICAL CO., LTD., priority 2013, published 2016)
